# Data published in patent US20090054491A1, “Use” (AstraZeneca AB, priority 2005, published 2009).
# System: Female C57Bl6 mice
# Test: Pharmacodynamic effect in mouse (intake of bland and palatable paste after fasting, body weight change)
# Assay type: in vivo
# Method: Female C57Bl6 mice (19-21 g) are singly housed for 7-days with ad libitum access to a “bland-paste” made from normal laboratory chow (R-3 Lactanin, Vadstena, Sweden) or to a “palatable-paste” of similar consistency containing oatmeal, butter, sugar, cocoa powder, cocoa butter and peanut butter. The day before the experimental day, food is removed for 12 hours. O the experiment day, animals are weighed and compound or vehicle is administered. Animals are returned to their home cages and given access to weighed amounts of both bland and palatable pastes. This food is then re-weighed 2, and optionally 4 and 6 hours later, and consumption of each food type calculated by the difference from initial food weight. Animals are further weighed at 24 hours after administration, and change in body weight over the treatment period is calculated.
compound,measurement,setting,value
"COCc1cc(C#N)cc(-c2nc(-c3ccc(F)cn3)no2)c1 [3-[3-(5-fluoropyridin-2-yl)-1,2,4-oxadiazol-5-yl]-5-(methoxymethyl)benzonitrile]",body weight recovery after fasting,"compared to vehicle treated animals, FIG. 2",slower body weight recovery
same,effect on normal laboratory chow (intake),"measured 2 hours after treatment, bland paste, fasted mice, FIG. 1",no effect
same,intake of sweets,"measured 2 hours after treatment, palatable paste, fasted mice, FIG. 1",decreased intake of sweets measured 2 hours after treatment in a dose-related manner
